How the values were obtained:
Type in all cases: functional
[1] = test system: Staphylococcus epidermidis; test: Antibacterial activity against Staphylococcus epidermidis CPHL A2 (Gram positive) strain, activity is expressed as log2MIC.
Escherichia coli [2] = test: Antibacterial activity against Escherichia coli ATCC 8739(Gram negative) strain.
Providencia stuartii = test: Antibacterial activity against Providencia stuartii CNUR 5(Gram negative) strain.
Shigella = test: Antibacterial activity against Shigella enteritidis (Gram negative) strain.
Klebsiella pneumoniae = test: Antibacterial activity against Klebsiella pneumoniae ATCC 10031 (Gram negative) strain.
[3] = test system: Staphylococcus epidermidis; test: Antibacterial activity against Staphylococcus epidermidis HCF Berset C (Gram positive) strain.
Escherichia coli [4] = test: Antibacterial activity against Escherichia coli ISF 432(Gram negative) strain.
Pseudomonas aeruginosa = test: Antibacterial activity against Pseudomonas aeruginosa ATCC 9027(Gram negative) strain.
Staphylococcus aureus [5] = test: Antibacterial activity against Staphylococcus aureus ATCC 6538 (Gram positive) strain.
Enterobacter cloacae = test: Antibacterial activity against Enterobacter cloacae OMNFI 174 (Gram negative) strain.
[6] = test system: Acinetobacter calcoaceticus; test: Antibacterial activity against Acinetobacter calcoaceticus OSMPV 113 (Gram negative) strain.
Staphylococcus aureus [7] = test: Antibacterial activity against Staphylococcus aureus MPR 5 (Gram positive) strain.
Enterococcus faecalis = test: Antibacterial activity against Streptococcus faecalis LEP Br (Gram positive) strain.

Log2 MIC [1] | Log2 MIC (Escherichia coli [2]) | Log2 MIC (Providencia stuartii) | Log2 MIC (Shigella) | Log2 MIC (Klebsiella pneumoniae) | Log2 MIC [3] | Log2 MIC (Escherichia coli [4]) | Log2 MIC (Pseudomonas aeruginosa) | Log2 MIC (Staphylococcus aureus [5]) | Log2 MIC (Enterobacter cloacae) | Log2 MIC [6] | Log2 MIC (Staphylococcus aureus [7]) | Log2 MIC (Enterococcus faecalis) | SMILES
6 | 9 | 4 | 9 | 12 | 5 | 12 | 5 | 6 | 9 | 2 | 6 | 2 | CN1CCN(c2cc3c(cc2N)c(=O)c(C(=O)O)cn3C2CC2)CC1
8 | 10 | 8 | 5 | 12 | 7 | 11 | 5 | 8 | 7 | 7 | 9 | 5 | Nc1cc2c(=O)c(C(=O)O)cn(C3CC3)c2c(F)c1N1CCSCC1
1 | 8 | 0 | 6 | 8 | 2 | 8 | 2 | 0 | 6 | 2 | 0 | 0 | NCCN1CCN(c2cc3c(cc2N)c(=O)c(C(=O)O)cn3C2CC2)CC1
5 | 12 | 6 | 9 | 12 | 5 | 12 | 5 | 6 | 10 | 6 | 6 | 5 | CN1CCN(c2c(N)c(N)c3c(=O)c(C(=O)O)cn(C4CC4)c3c2F)CC1
7 | 12 | 7 | 8 | 12 | 6 | 12 | 6 | 8 | 8 | 7 | 8 | 4 | Nc1cc2c(=O)c(C(=O)O)cn(C3CC3)c2cc1N1CCSCC1
4 | 10 | 1 | 2 | 10 | 4 | 10 | 1 | 5 | 3 | 3 | 4 | 0 | CC(C)(C)n1cc(C(=O)O)c(=O)c2cc(N)c(N3CCCC3)cc21
0 | 6 | 0 | 1 | 6 | 0 | 5 | 0 | 0 | 1 | 0 | 0 | 0 | Nc1cc2c(=O)c(C(=O)O)cn(C3CC3)c2cc1NC1CC1
0 | 9 | 0 | 3 | 9 | 0 | 9 | 0 | 0 | 4 | 0 | 0 | 0 | Nc1cc2c(=O)c(C(=O)O)cn(C3CC3)c2cc1N1CCCC1
8 | 11 | 5 | 6 | 12 | 8 | 12 | 5 | 9 | 6 | 8 | 9 | 4 | CC(C)(C)n1cc(C(=O)O)c(=O)c2cc(N)c(N3CCSCC3)cc21
6 | 12 | 4 | 6 | 12 | 5 | 12 | 4 | 5 | 6 | 0 | 5 | 4 | Nc1cc2c(=O)c(C(=O)O)cn(C3CC3)c2cc1N1CCC(O)CC1
1 | 8 | 0 | 2 | 8 | 1 | 7 | 0 | 1 | 3 | 0 | 0 | 0 | Nc1cc2c(=O)c(C(=O)O)cn(C3CC3)c2cc1N1CCSC1
7 | 11 | 6 | 9 | 12 | 6 | 12 | 6 | 7 | 8 | 6 | 7 | 3 | Cc1c(N2CC(C)NC(C)C2)c(N)cc2c(=O)c(C(=O)O)cn(C3CC3)c12 (stereo unspecified)
5 | 10 | 5 | 4 | 10 | 5 | 10 | 2 | 6 | 4 | 4 | 6 | 1 | CC(C)(C)n1cc(C(=O)O)c(=O)c2cc(N)c(N3CCc4ccccc43)cc21
1 | 5 | 1 | 6 | 6 | 1 | 6 | 2 | 1 | 6 | 1 | 1 | 1 | N#CCN1CCN(c2cc3c(cc2N)c(=O)c(C(=O)O)cn3C2CC2)CC1
7 | 8 | 0 | 1 | 9 | 6 | 8 | 0 | 7 | 1 | 7 | 7 | 3 | CC(C)(C)n1cc(C(=O)O)c(=O)c2cc(N)c(N3CCN(c4ccccn4)CC3)cc21
6 | 12 | 5 | 9 | 12 | 5 | 12 | 6 | 4 | 8 | 4 | 4 | 2 | CC1CN(c2cc3c(cc2N)c(=O)c(C(=O)O)cn3C2CC2)CC(C)N1 (stereo unspecified)
5 | 7 | 5 | 8 | 11 | 4 | 11 | 6 | 5 | 9 | 4 | 5 | 1 | CN1CCN(c2c(N)cc3c(=O)c(C(=O)O)cn(C4CC4)c3c2F)CC1
5 | 10 | 6 | 10 | 12 | 5 | 12 | 6 | 5 | 10 | 5 | 5 | 0 | CN1CCN(c2nc3c(cc2N)c(=O)c(C(=O)O)cn3C2CC2)CC1
5 | 12 | 3 | 9 | 12 | 5 | 12 | 6 | 3 | 9 | 3 | 3 | 2 | CC1CN(c2cc3c(cc2N)c(=O)c(C(=O)O)cn3C2CC2)CCN1 (stereo unspecified)
8 | 10 | 5 | 4 | 10 | 7 | 10 | 2 | 9 | 4 | 6 | 8 | 4 | CC(C)(C)n1cc(C(=O)O)c(=O)c2cc(N)c(N3CCc4ccccc4C3)cc21
3 | 9 | 2 | 8 | 9 | 3 | 12 | 6 | 1 | 9 | 3 | 1 | 0 | Nc1cc2c(=O)c(C(=O)O)cn(C3CC3)c2cc1N1CCNCC1

SMILES | Log2 MIC [1] | Log2 MIC (Escherichia coli [2]) | Log2 MIC (Providencia stuartii) | Log2 MIC (Shigella) | Log2 MIC (Klebsiella pneumoniae) | Log2 MIC [3] | Log2 MIC (Escherichia coli [4]) | Log2 MIC (Pseudomonas aeruginosa) | Log2 MIC (Staphylococcus aureus [5]) | Log2 MIC (Enterobacter cloacae) | Log2 MIC [6] | Log2 MIC (Staphylococcus aureus [7]) | Log2 MIC (Enterococcus faecalis)
Cc1c(N2CCNCC2)c(N)cc2c(=O)c(C(=O)O)cn(C3CC3)c12 | 5 | 12 | 6 | 12 | 12 | 4 | 12 | 7 | 6 | 11 | 6 | 5 | 3

From ChEMBL document CHEMBL1130043, “Chemometric methodologies in a quantitative structure-activity relationship study: the antibacterial activity of 6-aminoquinolones” (1997)
